# From patent publication US8865891B2, “Optically-detectable enzyme substrates and their method of use” (priority 2004, dated 2014)
# Like-named read-outs stand apart in the source and are kept apart here.
# Columns and labels:
# [1] = target: β-lactamase-conjugated secondary antibody (Escherichia coli, UniProt P62593); assay: Fluorogenic sandwich ELISA for prostate specific antigen (PSA); conditions: 1 μg substrate; fluorogenic assay
# Procedure: For the fluorogenic assay, 100 μl/well of a 10 μg/ml solution of anti-prostate specific antigen (PSA) antibody was applied to microplate wells. After incubation and washes, a dilution series of purified PSA was applied, and detection was achieved using 100 μl of a 10 μg/ml of an anti-PSA primary antibody and 100 μl of a 10 μg/ml of a β-lactamase-conjugated secondary antibody in the presence of 1 μg Compound 108 substrate (with appropriate washes between steps). The Z-statistic^1 gives a lower limit of detection of PSA in this assay of 16 pg/ml. For the colorimetric assay, a commercially available kit for the detection of PSA in human serum or plasma was used according to the manufacturers instructions. The assay was performed using the PSA standards provided in the kit. […] The reaction was stopped after 15 minutes using the stop solution provided in the kit and the absorbance was read at 450 nm. […]
# Optimal concentrations for use in ELISA-format assays was determined experimentally using a model sandwich ELISA to detect human Prostate Specific Antigen (PSA). […] The PSA standards were detected with a polyclonal rabbit anti-PSA antibody, then a secondary conjugate of goat anti-rabbit TEM-1. Plates were developed by addition of a β-lactamase substrate solution to drained wells, then measurement of fluorescence on the Tecan Safire fluorescence plate reader.
# [2] = pH range, hydrolysis rate: background fluorescence of substrate in buffers without enzyme; format: physicochemical; conditions: for increase in fluorescence due to hydrolysis (percentage of maximum fluorescence): 1 μg/mL, over 250 min; for time to complete hydrolysis: assumes a constant rate of hydrolysis
# Procedure: Compound 108 was prepared at a concentration of 1 μg/ml in three different buffers: MES at pH 5.5, PBS at pH 7.2, and Tris at pH 8.0. The substrate solutions were applied to the wells of a microplate, the plate was protected from light, and fluorescence values were gathered at time points from 10-250 minutes. […] Maximum signal was determined by the fluorescence value obtained when 10 μl of a 100 μg/ml solution of β-lactamase was added to control wells. Each point is the mean of 12 replicates. See, Example 32.
# Solutions of Compound 108 (1 μg/mL) were prepared in pH 5.5 MES, pH 7.2 PBS, and pH 8.0 Tris-HCl, then added to 16 wells of a 96-well plate. For each pH, high concentrations of TEM-1 were added to 4 wells to obtain a maximum signal (assuming complete cleavage of all substrate). The entire plate was read every 15 min. for 250 min. All fluorescent signals were averaged, then normalized to a percentage of the maximum fluorescence. […] The Tris-HCl samples increased in fluorescence about 7.5% over 250 min., corresponding to complete hydrolysis after about 55 hrs. […] These estimations assume a constant rate of hydrolysis.
# [3] = target: TEM-1 β-lactamase (Escherichia coli, UniProt P62593); assay: Fluorescence from precipitating β-lactamase substrate in 96-well microplate; format: biochemical
# Procedure: This was diluted 2-fold in methanol to give a working solution of 1 mM. 20 μL of 250 nM TEM-1 β-lactamase was added to the wells of a 96-well microplate. Appropriate volumes of substrate were added to the wells to give final concentrations of 0, 30, 50, 60, 75, 100, 140, 160 and 200 uM after diluting to 100 μL with 100 mM phosphate, 150 mM NaCl (pH7.1). The final β-lactamase concentration was 50 nM. Samples were excited @ 360 nm and fluorescence was measured @ 450 nm, signal was read @ 5, 13, 19, 26, 35, 45, 51 and 65 minutes. Maximum signal was attained after 5 minutes.
# [4] = target: TEM-1 (Escherichia coli, UniProt P62593); conditions: read-out: Km (μM) difluoro sub., 5 nM TEM-1, PBS, pH 7.2
# Chain of TEM-1 (P62593 24-286 limits assumed): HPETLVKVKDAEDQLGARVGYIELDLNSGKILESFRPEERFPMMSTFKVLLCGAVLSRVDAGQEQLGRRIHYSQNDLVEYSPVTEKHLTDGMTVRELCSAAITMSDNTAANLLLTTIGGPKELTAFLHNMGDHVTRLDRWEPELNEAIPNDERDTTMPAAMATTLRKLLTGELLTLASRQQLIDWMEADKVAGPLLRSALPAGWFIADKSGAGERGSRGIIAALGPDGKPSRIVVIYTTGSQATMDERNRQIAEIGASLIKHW
# Procedure: For determination of Km of the β-lactamase substrate with TEM-1, substrates ranging from 40 μg/mL to 5 μg/mL were added to microplate wells with a constant concentration of 5 nM TEM-1. The plate was read for the first 5 minutes with a Tecan Safire fluorescence plate reader using a constant gain setting. Relative Fluorescence Units (RFUs) were converted into moles of product produced using a standard curve of the substrate's fluorescent product. This standard curve was produced by adding an excess of TEM-1 (0.5 μM) to an equal volume of substrate, and incubating for more than 1 hour. Substrate standard concentrations ranged from ˜16 nM to 2 μM. It was assumed the reaction went to completion. All enzyme and substrate solutions were prepared in PBS, pH 7.2.
# Chain of TEM-1 β-lactamase (P62593 24-286 limits assumed): as above
# Chain of β-lactamase-conjugated secondary antibody (P62593 24-286 limits assumed): as above
structure (smiles),measurement,setting,value
O=C(Cc1cccs1)NC1C(=O)N2C(C(=O)O)=C(/C=C/COc3cc4c(cc3F)C3(OC(=O)c5ccccc53)c3cc(F)c(OC/C=C/C5=C(C(=O)O)N6C(=O)C(NC(=O)Cc7cccs7)C6[S+]([O-])C5)cc3O4)C[S+]([O-])C12 (stereo not drawn) [Compound 108],lower limit of detection of PSA (Z-statistic),[1],16 pg/mL
same,increase in fluorescence due to hydrolysis (percentage of maximum fluorescence),[2]; pH 5.5 MES and pH 7.2 PBS,about 3.25%
same,time to complete hydrolysis,[2]; pH 5.5 MES and pH 7.2 PBS,about 128 hrs
same,hydrolysis rate in pH 8.0 Tris-HCl relative to pH 5.5 MES and pH 7.2 PBS,[2]; pH 8.0 Tris-HCl vs MES/PBS,about double
same,increase in fluorescence due to hydrolysis (percentage of maximum fluorescence),[2]; pH 8.0 Tris-HCl,about 7.5%
same,time to complete hydrolysis,[2]; pH 8.0 Tris-HCl,about 55 hrs
O=C(Cc1cccs1)NC1C(=O)N2C(C(=O)O)=C(COc3ccccc3-c3nc4ccccc4c(=O)[nH]3)C[S+]([O-])C12 (stereo not drawn) [Compound 38],fluorescence enhancement upon reaction w/β-lactamase,"[3]; 50 nM β-lactamase, excitation 360 nm, emission 450 nm, pH 7.1",≥ 90 fold
same,time at which maximum signal was attained,"[3]; 50 nM β-lactamase, pH 7.1",5 min
same,reaction with β-lactamase in the presence of 40% methanol,[3]; 40% methanol,no reaction occurred
same,signal at high concentrations of substrate,"[3]; substrate up to 200 uM, presumably due to decreased solubility",signal dropped
O=C(Cc1cccs1)NC1C(=O)N2C(C(=O)O)=C(C=CCOc3cc4c(cc3F)C3(OC(=O)c5ccccc53)c3cc(F)c(OCC=CC5=C(C(=O)O)N6C(=O)C(NC(=O)Cc7cccs7)C6[S+]([O-])C5)cc3O4)C[S+]([O-])C12 (stereo not drawn) [Compound 108],Km,[4]; Lineweaver-Burk plot,40 µM
same,Km,[4]; Scatchard plot,36 µM
